{"source": "patent EP0843554B1", "about": "“ASCORBYL-PHOSPHORYL-CHOLESTEROL” (AVON PRODUCTS, INC., priority 1996, dated 1997)", "tested_on": "cultured human skin fibroblasts", "assay": "[^3H]-Proline Incorporation Assay (collagen biosynthesis)", "assay_type": "cell-based", "settings": "fibroblasts incubated with 11.3, 22.5 and 45 µg/ml for 48 hours; radioactive counts of newly synthesized [^3H]-hydroxyproline; numbers only in a chart image", "description": "An art-recognized [^3H]-Proline Incorporation Assay was performed with different doses of 3'-(L-ascorbyl-2-phosphoryl)-cholesterol. Juva, Anal. Biochem., Vol. 15, pages 77-83 (1966); Booth, Biochim. Biophys. Acta, Vol. 675, pages 117-122 (1981).\nFibroblasts were incubated with 0 µg/ml, 11.3 µg/ml, 22.5 µg/ml and 45 µg/ml of 3'-(L-ascorbyl-2-phosphoryl)-cholesterol for a total of 48 hours. After the first 24 hours [^3H]-labeled proline was added to the culture. Following the second 24 hour period the cells were harvested and prepared for the collagen biosynthesis assay.\nProtease inhibitors were added to prevent degradation of collagen and other proteins. The cell layer was scraped into a solution containing 0.4 M NaCl and 0.01 M Tris (pH 7.5). Extracts were sonicated to disrupt cell membranes. Separate volumes of the cell-containing solution (1 ml each) were dialyzed overnight against several changes of deionised water. The retentate was removed from dialysis and hydrolyzed in 6 N hydrochloric acid at 120°C overnight. The assay was performed using an oxidation process with 2 M chloramine-T. Samples were analyzed for radioactive counts, which represent the amount of newly synthesized [^3H]-hydroxyproline -- an index for new collagen synthesis."}
{"smiles": "CC(C)CCC[C@@H](C)[C@H]1CC[C@H]2[C@@H]3CC=C4C[C@@H](OP(=O)(O)OC5=C(O)[C@@H]([C@@H](O)CO)OC5=O)CC[C@]4(C)[C@H]3CC[C@]12C", "note": "[3'-(L-ascorbyl-2-phosphoryl)-cholesterol]", "values": [{"measurement": "production of new collagen", "value": "increased production of new collagen by human skin fibroblasts in a dose-dependent manner"}]}
